Test results: patent US20220226342A1, “COMPOSITIONS AND METHODS OF TREATING LIVER CANCERS” (The Johns Hopkins University, priority 2019, published 2022)

Experiments:
[1] = system: HCC 38; assay: IC50 in PDO line; format: cell-based; details: Homo sapiens
Method: (§1) The inventors tested omacetaxine at decreasing concentrations (10 μM, 1 μM, 100 nM, 10 nM and 1 nM) to calculate the half-maximal inhibitory concentration (IC50). […] The IC50 value for each of the 40 HCC PDO lines can be found in Table 2.

[2] = system: HCC 30; assay: IC50 in PDO line; format: cell-based; details: Homo sapiens
Method: as §1

[3] = system: HCC 65-2; assay: IC50 in PDO line; format: cell-based; details: Homo sapiens
Method: as §1

[4] = system: HCC 59; assay: IC50 in PDO line; format: cell-based; details: Homo sapiens
Method: as §1

[5] = system: HCC 37; assay: IC50 in PDO line; format: cell-based; details: Homo sapiens
Method: as §1

[6] = system: HCC 25-3; assay: IC50 in PDO line; format: cell-based; details: Homo sapiens
Method: as §1

[7] = system: HCC 26-5; assay: IC50 in PDO line; format: cell-based; details: Homo sapiens
Method: as §1

[8] = system: HCC 57; assay: IC50 in PDO line; format: cell-based; details: Homo sapiens
Method: as §1

[9] = system: HCC 80-5; assay: IC50 in PDO line; format: cell-based; details: Homo sapiens
Method: as §1

[10] = system: HCC 34-3; assay: IC50 in PDO line; format: cell-based; details: Homo sapiens
Method: as §1

[11] = system: HCC 67-3; assay: IC50 in PDO line; format: cell-based; details: Homo sapiens
Method: as §1

[12] = system: HCC 35; assay: IC50 in PDO line; format: cell-based; details: Homo sapiens
Method: as §1

[13] = system: HCC 36-3; assay: IC50 in PDO line; format: cell-based; details: Homo sapiens
Method: as §1

[14] = system: HCC 50; assay: IC50 in PDO line; format: cell-based; details: Homo sapiens
Method: as §1

[15] = system: HCC 83-3; assay: IC50 in PDO line; format: cell-based; details: Homo sapiens
Method: as §1

[16] = system: HCC 71-1; assay: IC50 in PDO line; format: cell-based; details: Homo sapiens
Method: as §1

[17] = system: HCC 67-1; assay: IC50 in PDO line; format: cell-based; details: Homo sapiens
Method: as §1

[18] = system: HCC 77; assay: IC50 in PDO line; format: cell-based; details: Homo sapiens
Method: as §1

[19] = system: HCC 26-2; assay: IC50 in PDO line; format: cell-based; details: Homo sapiens
Method: as §1

[20] = system: HCC 76; assay: IC50 in PDO line; format: cell-based; details: Homo sapiens
Method: as §1

[21] = system: HCC71-3; assay: IC50 in PDO line; format: cell-based; details: Homo sapiens
Method: as §1

[22] = system: HCC 83-1; assay: IC50 in PDO line; format: cell-based; details: Homo sapiens
Method: as §1

[23] = system: HCC 25-2; assay: IC50 in PDO line; format: cell-based; details: Homo sapiens
Method: as §1

[24] = system: HCC 25-1; assay: IC50 in PDO line; format: cell-based; details: Homo sapiens
Method: as §1

[25] = system: HCC 71-2; assay: IC50 in PDO line; format: cell-based; details: Homo sapiens
Method: as §1

[26] = system: HCC 80-3; assay: IC50 in PDO line; format: cell-based; details: Homo sapiens
Method: as §1

[27] = system: HCC 83-2; assay: IC50 in PDO line; format: cell-based; details: Homo sapiens
Method: as §1

[28] = system: HCC 80-1; assay: IC50 in PDO line; format: cell-based; details: Homo sapiens
Method: as §1

[29] = system: 6 HCC PDO lines; assay: cleaved caspase 3 flow cytometry; format: cell-based, human
Method: FIG. 5A-5E. Apoptosis analysis of HCC PDOs treated with omacetaxine in vitro. Organoids were plate on 24 well plate, omacetaxine at 700 μM, 350 μM were added to cell culture medium for 96 h. Then cells were collected and subjected to the analysis below. (5A and 5C). Flow cytometry analysis of 4 HCC PDOs apoptosis using Annexin V/7AAD assay. […] (5B and 5D). Flow cytometry analysis of cleaved caspase 3 expression of omacetaxine treated HCC PDOs. […] The effects on proliferation were assessed to elucidate the omacetaxine mechanisms of action. […] To further understand the effects of omacetaxine on cancer cell proliferation and cell cycle, the inventors performed FACS analysis of Ki67 protein. Ki-67 is a nuclear protein expressed in proliferating cells (in all phases of the cell cycle except G0)^22,23. Furthermore, the higher expression of Ki67 has been linked to poorer disease free survival and overall survival in HCC^24. […] As caspase 3 is a key molecule in apoptosis, the inventors measured its activated (cleaved) fragment.

[30] = system: 6 HCC PDO lines; assay: FACS analysis of BrdU incorporation (proliferation); format: cell-based, human
[31] = system: 40 HCC PDO lines; assay: omacetaxine dose response, IC50 across all 40 HCC PDO lines; format: cell-based; details: Homo sapiens; average of 40 HCC PDO lines; read-out: calculated average IC50 across all 40 HCC PDO lines
Method: FIG. 2A-2E. 10 μM drug screening and IC50 calculation across 40 PDOs from 20 HCC patients. (2A). 10 μM drug screening of omacetaxine and sorafenib, regorafenib, lenvatinib and cabozantinib on 40 PDOs derived from 20 HCC patients. X axis—the 40 PDO lines, Y axis—Cell viability. (2B). IC50 curve of 40 PDO lines, x-axis—omacetaxine dose, Y axis—Relative cell viability. (2C). […] (2D). IC50 distribution of 40 HCC PDOs. X axis—PDO lines, Y axis—IC50 number of omacetaxine for each PDO.

With COC(=O)C[C@](O)(CCCC(C)(C)O)C(=O)O[C@@H]1C(OC)=C[C@]23CCCN2CCc2cc4c(cc2[C@H]13)OCO4 [omacetaxine, omacetaxine mepusuccinate] the IC50 [1] was 18.5 nM, the IC50 [2] was 50.6 nM and the IC50 [3] was 7.4 nM. For the same molecule, the IC50 [4] was 21.2 nM, the IC50 [5] was 3.52 nM and the IC50 [6] was 60.1 nM. It also gave an IC50 [7] of 66.7 nM, an IC50 [8] of 14.1 nM and an IC50 [9] of 27.6 nM. For the same molecule, the IC50 [10] was 37.7 nM, the IC50 [11] was 1.67 nM and the IC50 [12] was 13.1 nM. The IC50 [13] was 80.7 nM, the IC50 [14] was 29.8 nM and the IC50 [15] was 8.85 nM. The IC50 [16] was 7.29 nM, the IC50 [17] was 4.03 nM and the IC50 [18] was 46.1 nM. For the same molecule, the IC50 [19] was 118 nM, the IC50 [20] was 35.5 nM and the IC50 [21] was 1.51 nM. The IC50 [22] was 17.7 nM, the IC50 [23] was 11.7 nM and the IC50 [24] was 37.4 nM. The IC50 [25] was 2.05 nM, the IC50 [26] was 15.7 nM and the IC50 [27] was 19.2 nM. The IC50 [28] was 80.1 nM, the “cleaved caspase 3” value [29] was “induced” and the “BrdU incorporation in newly synthetized DNA (proliferation)” value [30] was “inhibited incorporation”. The IC50 [31] was 35.2 nM.
